One may read the inhibition as the relative decrease from the control value, in per cent.

The subject of this assay is TNF-α. Briefly: Cytokine inhibitory activity in cells: LPS-induced TNF-α in RAW 264.7. To be noted: for inhibition at 1 µM / inhibition at 10 µM / inhibition at 100 µM / inhibition at 1000 µM: Mus musculus, RAW264.7, read-out: TNF-α Inhibition Rate (%); for inhibition at 1 µM / inhibition at 10 µM / inhibition at 100 µM / inhibition at 1000 µM / TNF-α Inhibition Rate (%): RAW 264.7, LPS 1 μg/mL; for inhibitory activity in RAW 264.7 cell line on the production of TNF-α, in words: compared to the control compounds. In kind it is cell-based, murine. The method, then: General reagents used were purchased from Sigma-Aldrich chem. Co. and cytokine inhibitory activities were tested as follows. Mediums and reagents used in cell culture were purchased from GIBCO BRL (USA), and mouse TNF-α ELISA kit was purchased from R&D system (USA). The apparatus used ELISA reader (Spectra max-Plus 384, Molecular Device, USA).
Murine macrophage cell line RAW 264.7 was kindly provided by Korean Tissue Culture Center (KTCC). The cell line was cultured in DMEM medium containing 10% FBS, in a cell culturing device at the condition of 37° C., 5% CO2. First, murine RAW 264.7 was cultured in DMEM medium containing 10% FBS for about 24 hours, and cells were planted 200 μL each in 96 well plates at the concentration of 5×10^5/mL and cultured for about 24 hours. Then, test compounds were treated at various concentrations and then reacted at 37° C. for about 1 hour, wherein 1 μg/mL of lipopolysaccharide (LPS) was added thereto and reacted at 37° C. for about 12 hours. The supernatant was recovered and the amount of murine TNF-α on the medium was quantitated using ELISA kit. Thalidomide was respectively used as a positive and a negative control to compare the activities and the results are shown in the following tables 4a -4c.

On to `Cc1cc2c(c(Cl)n1)C(=O)OCC2` [Ex. 20, 8-chloro-6-methyl-3,4-dihydro-pyrano[3,4-c]pyridine-1-on], for which the inhibition at 1 µM (test conc. 1 μM) was 15%. Further, for the setting “test conc. 10 μM”, the inhibition at 10 µM turned out to be 21%. The inhibition at 100 µM (test conc. 100 μM) turned out to be 31%. In addition, the inhibition at 1000 µM (test conc. 1 mM) worked out at 41%.

Take `COc1nc(C)cc2c1C(=O)OCC2` [Ex. 22, 8-methoxy-6-methyl-3,4-dihydro-pyrano[3,4-c]pyridine-1-on]: the inhibition at 10 µM (test conc. 10 μM) is 10%. For the setting “test conc. 100 μM”, the inhibition at 100 µM is 17%. Under “test conc. 1 mM”, the inhibition at 1000 µM was 30%.

In the case of `Cc1cc2c(c(C)n1)C(=O)OCC2` [Ex. 26, 6,8-dimethyl-3,4-dihydro-pyrano[3,4-c]pyridine-1-on], the inhibition at 10 µM (test conc. 10 μM) was determined as 6%. Besides, for the setting “test conc. 100 μM”, the inhibition at 100 µM is 17%. The inhibition at 1000 µM (test conc. 1 mM) turned out to be 28%.

Regarding `Cc1cc2c(c(-c3ccco3)n1)C(=O)OCC2` [Ex. 27, 6-methyl-8-furan-2-yl-3,4-dihydro-pyrano[3,4-c]pyridine-1-on], the inhibition at 1 µM (test conc. 1 μM) was 30%. Further, for the setting “test conc. 10 μM”, the inhibition at 10 µM was determined as 43%. The inhibition at 100 µM (test conc. 100 μM) came to 68%. The inhibition at 1000 µM (test conc. 1 mM) is 81%.

`Cc1cc2c(c(-c3cccs3)n1)C(=O)OCC2` [Ex. 28, 6-methyl-8-thiophene-2-yl-3,4-dihydro-pyrano[3,4-c]pyridine-1-on]: the inhibition at 1 µM (test conc. 1 μM) came out at 8%. Further, for the setting “test conc. 10 μM”, the inhibition at 10 µM turned out to be 27%. The inhibition at 100 µM (test conc. 100 μM) came to 37%. The inhibition at 1000 µM (test conc. 1 mM) worked out at 59%.

With `Cc1cc2c(c(-c3ccccn3)n1)C(=O)OCC2` [Ex. 29, 6-methyl-8-pyridine-2-yl-3,4-dihydro-pyrano[3,4-c]pyridine-1-on], the inhibition at 1 µM (test conc. 1 μM) was 10%. Also, the inhibition at 10 µM (test conc. 10 μM) came out at 15%. For the same compound, the inhibition at 100 µM (test conc. 100 μM) came out at 18%. Further, the inhibition at 1000 µM (test conc. 1 mM) is 30%.

`Cc1cc2c(c(-c3ccc(Cl)cc3)n1)C(=O)OCC2` [Ex. 31, 8-(4-chloro-phenyl)-6-methyl-3,4-dihydro-pyrano[3,4-c]pyridine-1-on]: the “inhibitory activity in RAW 264.7 cell line on the production of TNF-α, in words” value (“inhibitory activity” below) is on record as “superiorities over to the control compounds”. The inhibition at 1 µM (test conc. 1 μM) was 100%. Moreover, the inhibition at 10 µM (test conc. 10 μM) was found to be 100%. The inhibition at 100 µM (test conc. 100 μM) was 100%. Moreover, the inhibition at 1000 µM (test conc. 1 mM) was 100%.

`Cc1cc2c(c(N3CCN(C)CC3)n1)C(=O)OCC2` [Ex. 34, 6-methyl-8-(4-methyl-piperazine-1-yl)-3,4-dihydro-pyrano[3,4-c]pyridine-1-on]: the inhibition at 1 µM (test conc. 1 μM) amounted to 58%. In addition, the inhibition at 10 µM (test conc. 10 μM) amounted to 62%. Further, the inhibition at 100 µM (test conc. 100 μM) turned out to be 70%. The inhibition at 1000 µM (test conc. 1 mM) worked out at 80%.

Consider `Cc1cc2c(c(Nc3ccc(F)cc3)n1)C(=O)OCC2` [Ex. 35, 8-(4-fluoro-phenylamino)-6-methyl-3,4-dihydro-pyrano[3,4-c]pyridine-1-on], for which the inhibition at 1 µM (test conc. 1 μM) is 9%. Further, the inhibition at 10 µM (test conc. 10 μM) is 17%. The inhibition at 100 µM (test conc. 100 μM) worked out at 26%. Further, the inhibition at 1000 µM (test conc. 1 mM) came to 32%.

Regarding `Cc1cc2c(c(Nc3ccc(Cl)cc3)n1)C(=O)OCC2` [Ex. 37, 8-(4-chloro-phenylamino)-6-methyl-3,4-dihydro-pyrano[3,4-c]pyridine-1-on], the inhibition at 1 µM (test conc. 1 μM) turned out to be 54%. The inhibition at 10 µM (test conc. 10 μM) is 69%. Also, under “test conc. 100 μM”, the inhibition at 100 µM came out at 78%. Under “test conc. 1 mM”, the inhibition at 1000 µM was 89%.

With `Cc1ccc(Nc2nc(C)cc3c2C(=O)OCC3)cc1` [Ex. 39, 6-methyl-8-p-tolylamino-3,4-dihydro-pyrano[3,4-c]pyridine-1-on], the inhibition at 1 µM (test conc. 1 μM) was 9%. The inhibition at 10 µM (test conc. 10 μM) came to 22%. In addition, the inhibition at 100 µM (test conc. 100 μM) came out at 31%. Further, for the setting “test conc. 1 mM”, the inhibition at 1000 µM came to 40%.

For `Cc1cc2c(c(-c3ccccc3)n1)C(=O)OCC2` [Ex. 46, 6-methyl-8-phenyl-3,4-dihydro-pyrano[3,4-c]pyridine-1-on], the inhibition at 1 µM (test conc. 1 μM) worked out at 3%. Under “test conc. 10 μM”, the inhibition at 10 µM was determined as 9%. The inhibition at 100 µM (test conc. 100 μM) was found to be 19%. In addition, the inhibition at 1000 µM (test conc. 1 mM) is 29%.

Regarding `Cc1cc2c(c(Oc3ccccc3)n1)C(=O)OCC2` [Ex. 50, 6-methyl-8-phenoxy-3,4-dihydro-pyrano[3,4-c]pyridine-1-on], the inhibition at 1 µM (test conc. 1 μM) turned out to be 5%. Further, the inhibition at 10 µM (test conc. 10 μM) was 9%. In addition, where the note is “test conc. 100 μM”, the inhibition at 100 µM was found to be 19%. In addition, the inhibition at 1000 µM (test conc. 1 mM) was found to be 25%.

With `Cc1cc2c(c(NCc3ccccc3)n1)C(=O)OCC2` [Ex. 51, 8-benzylamino-6-methyl-3,4-dihydro-pyrano[3,4-c]pyridine-1-on], for the setting “test conc. 1 μM”, the inhibition at 1 µM amounted to 9%. For the same compound, for the setting “test conc. 10 μM”, the inhibition at 10 µM is 15%. The inhibition at 100 µM (test conc. 100 μM) is 21%. In addition, the inhibition at 1000 µM (test conc. 1 mM) was found to be 30%.

For the compound `Cc1nc(O)c2c(c1-c1ccccc1)CCOC2=O` [Ex. 60, 8-hydroxy-6-methyl-5-phenyl-3,4-dihydro-pyrano[3,4-c]pyridine-1-on], the inhibition at 1 µM (test conc. 1 μM) turned out to be 39%. In addition, the inhibition at 10 µM (test conc. 10 μM) amounted to 48%. Further, the inhibition at 100 µM (test conc. 100 μM) was 56%. Further, the inhibition at 1000 µM (test conc. 1 mM) amounted to 78%.

`Cc1nc(Cl)c2c(c1-c1ccccc1)CCOC2=O` [Ex. 61, 8-chloro-6-methyl-5-phenyl-3,4-dihydro-pyrano[3,4-c]pyridine-1-on]: the “inhibitory activity” value was “superiorities over to the control compounds”. For the same compound, the inhibition at 1 µM (test conc. 1 μM) is 87%. Moreover, the inhibition at 10 µM (test conc. 10 μM) stood at 100%. Also, the inhibition at 100 µM (test conc. 100 μM) was found to be 100%. Under “test conc. 1 mM”, the inhibition at 1000 µM stood at 100%.

Consider `Cc1ncc2c(c1-c1ccccc1)CCOC2=O` [Ex. 62, 6-methyl-5-phenyl-3,4-dihydro-pyrano[3,4-c]pyridine-1-on], for which the “inhibitory activity” value is recorded as “superiorities over to the control compounds”. The inhibition at 1 µM (test conc. 1 μM) was found to be 60%. In addition, the inhibition at 10 µM (test conc. 10 μM) is 78%. For the same compound, the inhibition at 100 µM (test conc. 100 μM) was 89%. Moreover, the inhibition at 1000 µM (test conc. 1 mM) is 100%.

As for `O=C1OCCc2cc(-c3ccccc3)ncc21` [Ex. 68, 6-phenyl-3,4-dihydro-pyrano[3,4-c]pyridine-1-on], where the note is “test conc. 1 μM”, the inhibition at 1 µM amounted to 50%. Moreover, the inhibition at 10 µM (test conc. 10 μM) turned out to be 58%. Also, the inhibition at 100 µM (test conc. 100 μM) was 65%. Besides, under “test conc. 1 mM”, the inhibition at 1000 µM came to 76%.

As to `O=C1OCCc2cc(-c3ccccc3)nc(Cl)c21` [Ex. 73, 8-chloro-6-phenyl-3,4-dihydro-pyrano[3,4-c]pyridine-1-on], for the setting “test conc. 1 μM”, the inhibition at 1 µM stood at 56%. Moreover, the inhibition at 10 µM (test conc. 10 μM) worked out at 63%. Further, the inhibition at 100 µM (test conc. 100 μM) worked out at 72%. Besides, where the note is “test conc. 1 mM”, the inhibition at 1000 µM amounted to 80%.

Turning to `Cc1nc(Cl)cc2c1C(=O)OCC2` [Ex. 96, 6-chloro-8-methyl-3,4-dihydro-pyrano[3,4-c]pyridine-1-on], the inhibition at 1 µM (test conc. 1 μM) stood at 38%. Also, where the note is “test conc. 10 μM”, the inhibition at 10 µM was determined as 46%. For the same compound, the inhibition at 100 µM (test conc. 100 μM) is 56%. Further, the inhibition at 1000 µM (test conc. 1 mM) amounted to 63%.

With `Cc1nc(-c2cccs2)cc2c1C(=O)OCC2` [Ex. 97, 8-methyl-6-(thiophene-2-yl)-3,4-dihydro-pyrano[3,4-c]pyridine-1-on], the “inhibitory activity” value is recorded as “superiorities over to the control compounds”. The inhibition at 1 µM (test conc. 1 μM) amounted to 75%. Also, under “test conc. 10 μM”, the inhibition at 10 µM was 84%. Where the note is “test conc. 100 μM”, the inhibition at 100 µM was 93%. Further, the inhibition at 1000 µM (test conc. 1 mM) came out at 100%.

In the case of `Cc1nc(-c2ccco2)cc2c1C(=O)OCC2` [Ex. 98, 6-(furan-2-yl)-8-methyl-3,4-dihydro-pyrano[3,4-c]pyridine-1-on], where the note is “test conc. 1 μM”, the inhibition at 1 µM turned out to be 56%. Besides, the inhibition at 10 µM (test conc. 10 μM) was 64%. Moreover, the inhibition at 100 µM (test conc. 100 μM) turned out to be 72%. Under “test conc. 1 mM”, the inhibition at 1000 µM turned out to be 87%.

With `Cc1nc(-c2ccc3c(c2)OCO3)cc2c1C(=O)OCC2` [Ex. 99, 6-(benzo[d][1,3]dioxol-6-yl)-8methyl-3,4-dihydro-pyrano[3,4c]pyridine-1-on], the “TNF-α Inhibition Rate (%)” value (test conc. 1 μM) is 9%, the “TNF-α Inhibition Rate (%)” value (test conc. 10 μM) is recorded as 19%, the “TNF-α Inhibition Rate (%)” value (test conc. 100 μM) was 22% and the “TNF-α Inhibition Rate (%)” value (test conc. 1 mM) was 35%.

In the case of `Cc1nc(-c2ccc(N(C)C)cc2)cc2c1C(=O)OCC2` [Ex. 100, 6-(4-(dimethylamino)phenyl)-8-methyl-3,4-dihydro-pyrano[3,4-c]pyridine-1-on], under “test conc. 10 μM”, the inhibition at 10 µM worked out at 9%. Moreover, the inhibition at 100 µM (test conc. 100 μM) was 18%. Moreover, the inhibition at 1000 µM (test conc. 1 mM) was 29%.

On to `O=C1OCCc2c1cnc1ccccc21` [Ex. 112, 3,4-dihydro-2-oxa-9-aza-phenanthrene-1-on], for which the inhibition at 1 µM (test conc. 1 μM) came to 24%. Moreover, for the setting “test conc. 10 μM”, the inhibition at 10 µM turned out to be 28%. The inhibition at 100 µM (test conc. 100 μM) worked out at 33%. For the setting “test conc. 1 mM”, the inhibition at 1000 µM was determined as 35%.
